Results reported in ChEMBL document CHEMBL3785036 (J Pharm Sci, 1974).

Legend:
Type in all cases: ADME, organism-based
[1] = Drug excretion in human subject rapid inactivator assessed as total isonicotinoyl compound level in urine at 670 mg, iv infused at constant rate 5.2min measured 400 mins after start of drug injection by colorimetry; details: in vivo
[2] = Drug excretion in human subject slow inactivator assessed as total isonicotinoyl compound level in urine at 681 mg, iv infused at constant rate 5.4 min measured 677 mins after start of drug injection by colorimetry; details: in vivo
[3] = Drug excretion in human subject slow inactivator assessed as total isonicotinoyl compound level in urine at 681 mg, iv infused at constant rate 5.4 min measured 747 mins after start of drug injection by colorimetry; details: in vivo, 12.45 h
[4] = Drug excretion in human subject slow inactivator assessed as total isonicotinoyl compound level in urine at 681 mg, iv infused at constant rate 5.4 min measured 305 mins after start of drug injection by colorimetry; details: in vivo
[5] = Drug excretion in human subject slow inactivator assessed as total isonicotinoyl compound level in urine at 681 mg, iv infused at constant rate 5.4 min measured 586 mins after start of drug injection by colorimetry; details: in vivo
[6] = Drug excretion in human subject rapid inactivator assessed as total isonicotinoyl compound level in urine at 670 mg, iv infused at constant rate 5.2min measured 227 mins after start of drug injection by colorimetry; details: in vivo
[7] = Drug excretion in human subject slow inactivator assessed as total isonicotinoyl compound level in urine at 681 mg, iv infused at constant rate 5.4 min measured 59.1 mins after start of drug injection by colorimetry; details: in vivo, 0.985 h
[8] = Drug excretion in human subject slow inactivator assessed as total isonicotinoyl compound level in urine at 681 mg, iv infused at constant rate 5.4 min measured 396 mins after start of drug injection by colorimetry; details: in vivo, 6.6 h
[9] = Drug excretion in human subject slow inactivator assessed as sum of isoniazid plus hydrazones, acetylisoniazid, isonicotinic acid and isonicotinuric acid level in urine at 681 mg, iv infused at constant rate 5.4 min measured 586 mins after start of drug injection by colorimetry; details: in vivo
[10] = Drug excretion in human subject rapid inactivator assessed as sum of isoniazid plus hydrazones, acetylisoniazid, isonicotinic acid and isonicotinuric acid level in urine at 670 mg, iv infused at constant rate 5.2min measured 296 mins after start of drug injection by colorimetry; details: in vivo
[11] = Drug excretion in human slow inactivators urine at 1 g, iv by colorimetry; details: in vivo
[12] = Drug excretion in human subject rapid inactivator assessed as sum of isoniazid plus hydrazones, acetylisoniazid, isonicotinic acid and isonicotinuric acid level in urine at 670 mg, iv infused at constant rate 5.2min measured 335 mins after start of drug injection by colorimetry; details: in vivo
[13] = Drug excretion in human subject slow inactivator assessed as total isonicotinoyl compound level in urine at 681 mg, iv infused at constant rate 5.4 min measured 710 mins after start of drug injection by colorimetry; details: in vivo
[14] = Drug metabolism in human slow inactivators assessed as excretion of isonicotinic acid in urine at 1 g, iv by colorimetry; details: in vivo
[15] = Drug excretion in human subject rapid inactivator assessed as sum of isoniazid plus hydrazones, acetylisoniazid, isonicotinic acid and isonicotinuric acid level in urine at 670 mg, iv infused at constant rate 5.2min measured 94 mins after start of drug injection by colorimetry; details: in vivo
[16] = Drug metabolism in human slow inactivators assessed as excretion of isonicotinuric acid in urine at 1 g, iv by colorimetry; details: in vivo
[17] = Drug excretion in human slow inactivators urine assessed as total isonicotinoyl compounds at 1 g, iv by colorimetry; details: in vivo
[18] = Drug excretion in human slow inactivators urine assessed as acetylisoniazid level at 1 g, iv by colorimetry; details: in vivo
[19] = Drug excretion in human subject slow inactivator assessed as total isonicotinoyl compound level in urine at 681 mg, iv infused at constant rate 5.4 min measured 524 mins after start of drug injection by colorimetry; details: in vivo
[20] = Drug metabolism in human rapid inactivators assessed as excretion of pyruvic acid isonicotinoylhydrazone in urine at 1 g, iv by colorimetry; details: in vivo
[21] = Drug excretion in human subject rapid inactivator assessed as total isonicotinoyl compound level in urine at 670 mg, iv infused at constant rate 5.2min measured 126 mins after start of drug injection by colorimetry; details: in vivo, 2.1 h
[22] = Drug excretion in human subject rapid inactivator assessed as sum of isoniazid plus hydrazones, acetylisoniazid, isonicotinic acid and isonicotinuric acid level in urine at 670 mg, iv infused at constant rate 5.2min measured 458 mins after start of drug injection by colorimetry; details: in vivo
[23] = Drug excretion in human rapid inactivators urine at 1 g, iv by colorimetry; details: in vivo
[24] = Drug excretion in human subject slow inactivator assessed as total isonicotinoyl compound level in urine at 681 mg, iv infused at constant rate 5.4 min measured 554 mins after start of drug injection by colorimetry; details: in vivo
[25] = Drug excretion in human subject rapid inactivator assessed as sum of isoniazid plus hydrazones, acetylisoniazid, isonicotinic acid and isonicotinuric acid level in urine at 670 mg, iv infused at constant rate 5.2min measured 486 mins after start of drug injection by colorimetry; details: in vivo, 8.1 h
[26] = Drug excretion in human subject slow inactivator assessed as total isonicotinoyl compound level in urine at 681 mg, iv infused at constant rate 5.4 min measured 181 mins after start of drug injection by colorimetry; details: in vivo
[27] = Drug excretion in human subject rapid inactivator assessed as sum of isoniazid plus hydrazones, acetylisoniazid, isonicotinic acid and isonicotinuric acid level in urine at 670 mg, iv infused at constant rate 5.2min measured 426 mins after start of drug injection by colorimetry; details: in vivo
[28] = Drug metabolism in human slow inactivators assessed as excretion of alpha-ketoglutaric acid isonicotinoylhydrazone in urine at 1 g, iv by colorimetry; details: in vivo
[29] = Drug excretion in human subject slow inactivator assessed as total isonicotinoyl compound level in urine at 681 mg, iv infused at constant rate 5.4 min measured 613 mins after start of drug injection by colorimetry; details: in vivo
[30] = Drug metabolism in human slow inactivators assessed as excretion of acetylisoniazid in urine at 1 g, iv by colorimetry; details: in vivo
[31] = Drug excretion in human subject rapid inactivator assessed as total isonicotinoyl compound level in urine at 670 mg, iv infused at constant rate 5.2min measured 373 mins after start of drug injection by colorimetry; details: in vivo
[32] = Drug excretion in human rapid inactivators urine assessed as isonicotinuric acid level at 1 g, iv by colorimetry; details: in vivo
[33] = Drug excretion in human subject rapid inactivator assessed as sum of isoniazid plus hydrazones, acetylisoniazid, isonicotinic acid and isonicotinuric acid level in urine at 670 mg, iv infused at constant rate 5.2min measured 227 mins after start of drug injection by colorimetry; details: in vivo
[34] = Drug excretion in human subject slow inactivator assessed as total isonicotinoyl compound level in urine at 681 mg, iv infused at constant rate 5.4 min measured 496 mins after start of drug injection by colorimetry; details: in vivo
[35] = Drug excretion in human slow inactivators urine assessed as isoniazid plus hydrazones level at 1 g, iv by colorimetry; details: in vivo
[36] = Drug metabolism in human rapid inactivators assessed as excretion of isonicotinic acid in urine at 1 g, iv by colorimetry; details: in vivo

## NNC(=O)c1ccncc1 [ISONIAZID]
[1]
  Drug excretion: 18.5 mg
[2]
  Drug excretion: 10.6 mg
[3]
  Drug excretion: 9.44 mg
[4]
  Drug excretion: 27.3 mg
[5]
  Drug excretion: 12.7 mg
[6]
  Drug excretion: 38.8 mg
[7]
  Drug excretion: 33.7 mg
[8]
  Drug excretion: 16.5 mg
[9]
  Drug excretion: 13.18 mg
[10]
  Drug excretion: 39.4 mg
[11]
  Drug excretion: 12.7 %molar
[12]
  Drug excretion: 29 mg
[13]
  Drug excretion: 9.25 mg
[14]
  Drug metabolism: 18.1 %molar
[15]
  Drug excretion: 48.1 mg
[16]
  Drug metabolism: 14.2 %molar
[17]
  Drug excretion: 98.8%
[18]
  Drug excretion: 97%
[19]
  Drug excretion: 10.4 mg
[20]
  Drug metabolism: 2.9 %molar
[21]
  Drug excretion: 43.4 mg
[22]
  Drug excretion: 17.3 mg
[23]
  Drug excretion: 3.6 %molar
[24]
  Drug excretion: 13.1 mg
[25]
  Drug excretion: 13 mg
[26]
  Drug excretion: 33.6 mg
[27]
  Drug excretion: 16.5 mg
[28]
  Drug metabolism: 6.9 %molar
[29]
  Drug excretion: 12.2 mg
[30]
  Drug metabolism: 34.3 %molar
[31]
  Drug excretion: 28.7 mg
[32]
  Drug excretion: 101%
[33]
  Drug excretion: 38.5 mg
[34]
  Drug excretion: 13.5 mg
[35]
  Drug excretion: 98%
[36]
  Drug metabolism: 27.1 %molar
